In test [1] the test system is PC-3. Description: Cell cycle arrest in human PC3 cells assessed as accumulation at S phase at 15 uM after 24 hrs using propidium iodide staining by flow cytometry (reference value: 34.84 %). It counts as functional.
The subject of test [2] is PC-3. Description: Induction of apoptosis in human PC3 cells at 15 uM after 72 hrs using propidium iodide staining by flow cytometry (reference value: 1.79 %). It counts as functional. (In general: Flow cytometry measures light scatter and fluorescence of single cells or particles in a stream.)
In test [3] the target is T1, Adrenergic receptor alpha-2 (Rattus norvegicus, UniProt P22086+P19328+P22909).
T1 sequence (P22086 whole entry): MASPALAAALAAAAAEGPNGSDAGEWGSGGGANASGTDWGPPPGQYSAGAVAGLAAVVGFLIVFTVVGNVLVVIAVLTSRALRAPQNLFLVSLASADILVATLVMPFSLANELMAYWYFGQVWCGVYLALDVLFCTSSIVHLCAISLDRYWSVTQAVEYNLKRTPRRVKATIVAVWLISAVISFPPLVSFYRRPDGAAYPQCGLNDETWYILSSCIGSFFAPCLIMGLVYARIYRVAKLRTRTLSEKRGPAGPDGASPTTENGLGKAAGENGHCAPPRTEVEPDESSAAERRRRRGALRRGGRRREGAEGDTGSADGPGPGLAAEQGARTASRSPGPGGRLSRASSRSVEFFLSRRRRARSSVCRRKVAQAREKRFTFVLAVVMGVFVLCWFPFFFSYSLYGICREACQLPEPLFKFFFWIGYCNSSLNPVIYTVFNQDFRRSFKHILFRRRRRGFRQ
T1 sequence (P19328 whole entry): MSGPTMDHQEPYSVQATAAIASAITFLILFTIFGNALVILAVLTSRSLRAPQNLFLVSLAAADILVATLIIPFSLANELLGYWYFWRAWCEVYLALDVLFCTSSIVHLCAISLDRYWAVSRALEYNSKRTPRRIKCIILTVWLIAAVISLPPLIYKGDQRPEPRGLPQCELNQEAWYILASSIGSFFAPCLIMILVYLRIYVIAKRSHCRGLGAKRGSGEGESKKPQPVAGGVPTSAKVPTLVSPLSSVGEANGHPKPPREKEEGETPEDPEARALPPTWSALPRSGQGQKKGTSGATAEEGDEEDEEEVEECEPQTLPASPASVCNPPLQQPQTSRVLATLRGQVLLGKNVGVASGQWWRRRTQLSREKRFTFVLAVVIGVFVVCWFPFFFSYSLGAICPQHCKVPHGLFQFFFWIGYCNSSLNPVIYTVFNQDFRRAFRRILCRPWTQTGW
T1 sequence (P22909 whole entry): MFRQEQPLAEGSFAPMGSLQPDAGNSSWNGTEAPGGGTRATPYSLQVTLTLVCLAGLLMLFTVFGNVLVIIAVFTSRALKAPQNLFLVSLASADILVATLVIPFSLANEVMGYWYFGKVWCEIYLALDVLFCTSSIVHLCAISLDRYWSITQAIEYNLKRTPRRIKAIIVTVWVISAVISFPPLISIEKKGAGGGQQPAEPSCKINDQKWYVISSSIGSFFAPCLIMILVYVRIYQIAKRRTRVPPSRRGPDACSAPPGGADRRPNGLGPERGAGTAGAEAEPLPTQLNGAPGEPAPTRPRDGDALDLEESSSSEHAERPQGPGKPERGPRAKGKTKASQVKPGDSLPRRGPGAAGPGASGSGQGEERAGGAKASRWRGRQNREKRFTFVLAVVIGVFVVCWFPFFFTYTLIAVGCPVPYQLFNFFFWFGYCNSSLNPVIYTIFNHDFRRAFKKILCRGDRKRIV
Kind of test: Displacement [3H]yohimbine from alpha 2 adrenergic receptor in rat brain cortex homogenates after 30 mins by liquid scintillation counting. It counts as tissue-based.

Test [4] relates to PC-3. Description: Cell cycle arrest in human PC3 cells assessed as accumulation at G1 phase at 15 uM after 72 hrs using propidium iodide staining by flow cytometry (reference value: 42.19 %). In kind it is functional.
The test system of test [5] is PC-3. Kind of test: Cell cycle arrest in human PC3 cells assessed as accumulation at G1 phase at 15 uM after 24 hrs using propidium iodide staining by flow cytometry (reference value: 46.97 %). In kind it is functional.
The target in test [6] is D(2) dopamine receptor (Rattus norvegicus, UniProt P61169). Description: Displacement of [3H]spiperone from dopamine D2 receptor in rat corpora striatum homogenates after 15 mins by liquid scintillation counting. In general terms: In a radioligand displacement assay an active substance lowers the binding of a labelled ligand.
Test [7] addresses 5-hydroxytryptamine receptor 2A (Rattus norvegicus, UniProt P14842). Description: Displacement of [3H]Ketanserin from 5HT2A receptor in Sprague-Dawley rat frontal cortical homogenates after 15 mins.
The test system of test [8] is PC-3. Description: Cell cycle arrest in human PC3 cells assessed as accumulation at G1 phase at 15 uM after 48 hrs using propidium iodide staining by flow cytometry (reference value: 54.14 %). It counts as functional.
The subject of test [9] is PC-3. Kind of test: Induction of apoptosis human PC3 cells assessed as externalization of phosphatidylserine on the outer layer of plasma membrane at 15 uM after 24 to 48 hrs using Annexin-V-FITC staining by flow cytometry. It counts as functional, cell-based.
The test system of test [10] is PC-3. Kind of test: Cell cycle arrest in human PC3 cells assessed as accumulation at S phase at 15 uM after 48 hrs using propidium iodide staining by flow cytometry (reference value: 38.16 %). In kind it is functional.
Test [11] deals with PC-3. Description: Induction of apoptosis in human PC3 cells at 15 uM after 48 hrs using propidium iodide staining by flow cytometry (reference value: 0.84 %). It counts as functional.
The subject of test [12] is PC-3. Kind of test: Cell cycle arrest in human PC3 cells assessed as accumulation at G2 phase at 15 uM after 24 hrs using propidium iodide staining by flow cytometry (reference value: 18.19 %). In kind it is functional.
The test system of test [13] is PC-3. Description: Cell cycle arrest in human PC3 cells assessed as accumulation at G2 phase at 15 uM after 48 hrs using propidium iodide staining by flow cytometry (reference value: 13.36 %). It counts as functional.
For test [14], the system named is PC-3. Kind of test: Cell cycle arrest in human PC3 cells assessed as accumulation at G2 phase at 15 uM after 72 hrs using propidium iodide staining by flow cytometry (reference value: 20.18 %). In kind it is functional.
Test [15] has as its system PC-3. Kind of test: Cell cycle arrest in human PC3 cells assessed as accumulation at S phase at 15 uM after 72 hrs using propidium iodide staining by flow cytometry (reference value: 37.73 %). In kind it is functional.
In test [16] the test system is PC-3. Kind of test: Induction of apoptosis in human PC3 cells at 15 uM after 24 hrs using propidium iodide staining by flow cytometry (reference value: 1.27 %). In kind it is functional.
Test [17] concerns the target T2, 5-hydroxytryptamine receptor 1A (Rattus norvegicus, UniProt P19327).
T2 sequence (P19327 whole entry): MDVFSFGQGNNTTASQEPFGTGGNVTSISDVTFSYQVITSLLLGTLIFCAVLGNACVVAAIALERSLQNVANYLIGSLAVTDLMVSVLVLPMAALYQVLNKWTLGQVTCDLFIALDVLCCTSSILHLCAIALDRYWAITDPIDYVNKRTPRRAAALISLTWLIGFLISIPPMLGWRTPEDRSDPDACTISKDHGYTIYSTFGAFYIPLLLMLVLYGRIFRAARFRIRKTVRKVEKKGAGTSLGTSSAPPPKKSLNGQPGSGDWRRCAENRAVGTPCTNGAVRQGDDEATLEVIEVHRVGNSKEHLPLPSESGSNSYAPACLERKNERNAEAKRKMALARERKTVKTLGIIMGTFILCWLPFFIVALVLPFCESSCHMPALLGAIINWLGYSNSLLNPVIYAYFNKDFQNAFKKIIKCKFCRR
Kind of test: Displacement of [3H]8-OH-DPAT from 5HT1A receptor in Sprague-Dawley rat brain cortex homogenates after 30 mins by liquid scintillation counting. In kind it is tissue-based.

Usually Ki stands for a dissociation constant, usually derived from enzyme kinetics or from competition with a known ligand. A lower Ki goes with tighter binding.

Active and inactive are the calls of the source. No cut-off for these calls is given here.

Sequence of 5-hydroxytryptamine receptor 2A (P14842 whole entry): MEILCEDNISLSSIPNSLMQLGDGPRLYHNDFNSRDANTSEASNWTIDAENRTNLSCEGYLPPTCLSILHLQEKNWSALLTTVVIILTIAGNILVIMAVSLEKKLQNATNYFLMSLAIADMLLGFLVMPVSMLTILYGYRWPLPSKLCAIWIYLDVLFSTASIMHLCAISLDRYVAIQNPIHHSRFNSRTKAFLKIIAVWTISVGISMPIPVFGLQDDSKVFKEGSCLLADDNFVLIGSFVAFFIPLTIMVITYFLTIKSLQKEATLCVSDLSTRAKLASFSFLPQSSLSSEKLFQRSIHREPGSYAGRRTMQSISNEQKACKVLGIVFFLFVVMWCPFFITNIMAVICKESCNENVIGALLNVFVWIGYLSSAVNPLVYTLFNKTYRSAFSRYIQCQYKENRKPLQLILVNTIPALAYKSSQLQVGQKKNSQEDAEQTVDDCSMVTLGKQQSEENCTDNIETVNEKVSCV
Sequence of D(2) dopamine receptor (P61169 whole entry): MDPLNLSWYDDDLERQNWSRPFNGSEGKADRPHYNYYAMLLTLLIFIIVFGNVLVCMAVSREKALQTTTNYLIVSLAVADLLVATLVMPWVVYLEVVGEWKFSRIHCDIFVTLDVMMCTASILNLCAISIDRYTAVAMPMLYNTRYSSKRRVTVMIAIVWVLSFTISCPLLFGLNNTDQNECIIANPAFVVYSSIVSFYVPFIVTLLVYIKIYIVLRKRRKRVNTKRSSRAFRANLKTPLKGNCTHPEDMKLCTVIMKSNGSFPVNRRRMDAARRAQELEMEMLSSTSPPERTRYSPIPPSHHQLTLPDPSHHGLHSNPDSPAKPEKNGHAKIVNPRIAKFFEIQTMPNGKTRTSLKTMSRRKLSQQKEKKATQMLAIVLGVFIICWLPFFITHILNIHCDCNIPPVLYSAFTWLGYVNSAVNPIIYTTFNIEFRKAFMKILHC

As to `O=c1c2ccccc2nnn1CCCN1CCN(c2cccc3ccccc23)CC1`, the Activity was determined as 35.15% in test [1]; 2.25% in [2]; 43.11% in test [4]; 37.55% in test [5]; 44.13% in [8]; 33.58% in test [10]. For the same compound, the Activity in test [11] stood at 2.12%; in [12], 27.3%; in [13] it was 22.29%; in test [14], 28.65%; in test [15], 28.24%; in test [16], 1.71%. In addition, the Ki in test [3] was 3600 nM; in test [6], > 10000 nM; in test [7], 127 nM; in [17] it was 7.79 nM. In addition, the result in [9] was Active.
For `O=c1c2ccccc2nnn1CCN1CCN(c2cccc3ccccc23)CC1`, the Activity in [1] came to 37.45%; in test [2] it was 2.17%; in test [4], 45.86%; in test [5], 38.38%; in test [8], 41.36%; in test [10] it was 34.56%. Further, the Activity in test [11] is given as 2.79%; in test [12], 24.17%; in test [13], 24.08%; in [14] it was 24.19%; in [15], 29.95%; in [16] it was 2.17%. Further, the Ki in test [3] is 1880 nM; in test [6], > 10000 nM; in [7], 5.29 nM. Further, the result in test [9] was Active.
Regarding `O=C1C2C3C=CC(C3)C2C(=O)N1OCCN1CCN(c2cccc3ccccc23)CC1` (stereo not drawn), the Ki in [3] was 1200 nM; in test [6] it was > 10000 nM; in [7] it was 113 nM; in test [17], 1.58 nM.
`O=c1c2ccccc2nnn1OCCCN1CCN(c2cccc3ccccc23)CC1`: the Ki is > 10000 nM in test [3], 85.4 nM in [6], 721 nM in test [7] and > 10000 nM in test [17].
On to `O=c1c2ccccc2nnn1OCCN1CCN(c2cccc3ccccc23)CC1`, for which the Ki in [3] is > 10000 nM; in [6], > 10000 nM; in test [7] it was 1320 nM; in test [17], > 10000 nM.
With `N#C/N=C(\NCCCN1CCN(c2cccc3ccccc23)CC1)c1ccccn1`, the Ki in [3] was > 10000 nM; in test [6] it was > 10000 nM; in [7], 224 nM; in test [17] it was 5.85 nM.
For `O=C1C2C3C=CC(C3)C2C(=O)N1OCCCN1CCN(c2cccc3ccccc23)CC1` (stereo not drawn), the Ki stood at 189 nM in test [3], 263 nM in test [6], 91.8 nM in [7] and 0.293 nM in [17].

(Values after ChEMBL document CHEMBL1781926, “Synthesis of 1-naphtylpiperazine derivatives as serotoninergic ligands and their evaluation as antiproliferative agents” (Eur J Med Chem, 2011).)
